# Laboratory results taken from article PMC12040169 (PLOS Biology, 2025).
# Assay: in vitro
# Details: human, hela cells, % viability
row,SMILES,"viability at 28.5 h, 10 µM [%]"
1,CCC(O)Cn1nc(CCSC)nc1-c1cn(C)c(=O)[nH]c1=O (centres unmarked) [CBK306588],83.5
2,Cc1ccc(C)c(NC(=O)CCNC(=O)c2cnn3cc(C)cnc23)c1 [CBK306590],87.5
3,Cc1cccn2c(CN(C)C(C)C(N)=O)c(C(=O)N3CCOCC3)nc12 (centres unmarked) [CBK306592],105
4,O=C(Cn1cccnc1=O)NC(c1ccc2c(c1)CCO2)C1CC(O)C1 (centres unmarked) [CBK306595],75.3
5,CCc1nccn1CCC(=O)N1CC(OCc2ccccc2F)C1 [CBK306597],88.5
6,O=C(CCN1CCn2nc(C(O)C3CC3)cc2C1)NCc1cccs1 (centres unmarked) [CBK306603],93.1
7,CCn1c(C)nnc1SCCNc1cc(C)nc2ccnn12 [CBK306607],99.7
8,CCCn1cc(NC(=O)NCc2cc3c(cc2OC)CCC3)nn1 [CBK306614],86.4
9,O=C(O)C1(Oc2ccc3ccccc3c2)CCN(C2CCNCC2)CC1 [CBK306615],108
10,O=C(NCC1CCOC1)c1ccc(-c2ccccc2CO)cc1 (centres unmarked) [CBK306616],107
11,COc1ccnc(NC(c2cnn(C)c2)[C@H]2C[C@@H](O)C2)n1 (some centres unmarked) [CBK306617],97.8
12,Cc1ccc(OCc2occc2C(=O)N2CCCn3cncc3C2)cc1 [CBK306618],92.7
13,CCn1ccnc1CN1CCOC(Cc2ccccc2Cl)C1 (centres unmarked) [CBK306625],94.5
14,CCn1nc(C2CCCC2)nc1-c1cnc2ccnn2c1C [CBK306626],87.1
15,O=C(NCCN1CCCCC1)C1CC(=O)N(Cc2ccncc2)C1 (centres unmarked) [CBK306629],100
16,CCN(CCn1cccn1)c1nc2nonc2nc1N(C)C [CBK306630],88.9
17,Cc1cc(N)n(CC(=O)NCCCn2ccnc2C(C)C)n1 [CBK306632],89.3
18,CC(=O)c1c(-c2cccc(C(=O)N(C)C3CCN(C)C3)c2)cnn1C (centres unmarked) [CBK306633],106
19,O=C(NC(c1ccc2c(c1)CCO2)[C@H]1C[C@@H](O)C1)c1c[nH]c(=O)c(Cl)c1 (some centres unmarked) [CBK306634],95
20,Cn1ccnc1CNC(=O)c1cccc(OCC(=O)N2CCCCC2)c1 [CBK306635],86.8
21,Cc1nc(CCNC(=O)N2CCC(Oc3cccnc3)CC2)sc1Cl [CBK306636],93.8
22,Cc1cccc(OCC2CCCN(C(=O)CCc3nncn3C)C2)c1 (centres unmarked) [CBK306640],88.8
23,Cn1ncc(N2CCC(CNC(=O)c3ccc(F)cc3Cl)C2)cc1=O (centres unmarked) [CBK306643],97.1

row,SMILES,"viability at 28.5 h, 10 µM [%]"
1,CCn1cc(CN2CCC(Oc3cc(C)ccc3F)(C(=O)O)CC2)cn1 [CBK306644],96.1
2,COC(=O)C1CCCN1C(=O)C1(Oc2ccc(C)cc2)CCNCC1 (centres unmarked) [CBK306655],96.5
3,CCS(=O)(=O)NC1CC(C)(C)Cc2c1cnn2-c1ccc(OC)cc1 (centres unmarked) [CBK306656],116
4,CCCCSc1nc(N)cc(N2CCOCC(CN(C)C)C2)n1 (centres unmarked) [CBK306659],103
5,COc1ccccc1-n1nc(CC(C)C)nc1C(C)NS(C)(=O)=O (centres unmarked) [CBK306660],95.6
6,Cc1[nH]c2ccccc2c1CCNC(=O)N(Cc1cnn(C)c1)C1CC1 [CBK306661],89
7,Cc1cccn2c(CN3CC(O)C3)c(C(=O)N3CCCCC3)nc12 [CBK306662],88.3
8,CCCCC(c1cccnc1)N(C)C(=O)CCc1ccnn1C (centres unmarked) [CBK306664],117
9,Cc1nn(C)cc1CN(C)CC(=O)Nc1nc2c(s1)CC(C)CC2 (centres unmarked) [CBK306669],90.6
10,CCN1CCN(Cc2cnc(-c3ccccn3)nc2)CC1=O [CBK306678],99.9
11,CC(NC(=O)C1(Cn2ccnc2)CC1)c1nncn1C(C)C (centres unmarked) [CBK306682],99.5
12,CN(Cc1cnn(C)c1)C(=O)COCc1nc2cc(F)ccc2[nH]1 [CBK306687],94.3
13,CCOC(=O)C1(NC(=O)C2(Oc3cccnc3C)CCNCC2)CCC1 [CBK306688],89.9
14,CN(CCN1CCCC1)c1nccc(N2CCN[C@H]3CS(=O)(=O)C[C@H]32)n1 [CBK306692],85.6
15,CC(=O)Nc1ccc(CNC(=O)CN(C)Cc2nc(C3CC3)no2)cc1 [CBK306695],114
16,Cc1nc(O)cc(C2CCCN(C(=O)c3csc4c3CCCC4)C2)n1 (centres unmarked) [CBK306696],87.3
17,CCOc1ccc(NC(=O)N(CCOC)Cc2cnn(C)c2)cc1Cl [CBK306697],90.3
18,CCCc1cc(C(=O)N[C@@H]2CCOC[C@H]2Oc2ccc(CO)cc2)cs1 [CBK306700],91.6
19,CC(C)N(C(=O)c1ccccc1-c1cnc2nncn2c1)C(C)C [CBK306701],99.8
20,CN(Cc1nc2c(s1)CCCC2)C(=O)CCn1nnc2ccccc21 [CBK306704],107
21,O=C(NCc1csc2c1CCCC2)N1CCCC(c2cc(O)ncn2)C1 (centres unmarked) [CBK306705],99.3
22,O=C(NC1CCNC1)c1cccc(S(=O)(=O)NCc2ccsc2)c1 (centres unmarked) [CBK306706],88
23,COc1ccc2cc(C(=O)N3Cc4cnn(CCO)c4C3)n(C)c2c1 [CBK306707],94.5

row,SMILES,"viability at 28.5 h, 10 µM [%]"
1,CCC(O)c1cc2n(n1)CCN(C(=O)c1cn(-c3ccccc3)nn1)C2 (centres unmarked) [CBK306708],93.7
2,CCCCCN1CCn2nc(CNc3cnccn3)cc2C1 [CBK306713],77.2
3,Cn1nc(NC(=O)c2cnccn2)c2c(N3CCOCC3)cccc21 [CBK306716],100
4,Cc1cnn(-c2cc(N3CCC(n4cc(C5CC5)nn4)CC3)ncn2)c1 [CBK306721],96.2
5,Cc1nn(C)cc1-c1c(C#N)c(N)nc2c1CN(Cc1ccco1)CC2 [CBK306722],90.4
6,COCCN(Cc1cnn(C)c1)Cc1cc(O)c2cc(C)ccc2n1 [CBK306723],86.1
7,COCCNc1nc2c(c(N3CCCCCC3)n1)CCNCC2 [CBK306724],104
8,COc1cccn(CC(=O)N(C)CCc2scnc2C)c1=O [CBK306726],94.2
9,COc1ccc(CN(C)C2CCOCC2)cc1Cn1cncn1 [CBK306728],93.9
10,CCCS(=O)(=O)NC1CC(C)(C)Cc2c1cnn2-c1ccc(OC)cc1 (centres unmarked) [CBK306730],103
11,CSc1nc(C(=O)N2CCCCC2c2cccc(F)c2)cs1 (centres unmarked) [CBK306732],108
12,Cc1cc(C(F)(F)F)n(CC(C)CNC(=O)Cc2csc(C)n2)n1 (centres unmarked) [CBK306733],87.8
13,CCNC(=O)N1CCCC(Cc2ccc(F)cc2F)(C(=O)OCC)C1 (centres unmarked) [CBK306734],81.9
14,COCCc1nc(-c2csc(CN(C)C)n2)n(Cc2ccccc2C)n1 [CBK306735],107
15,CCc1nccn1CCCNC(=O)Nc1cccnc1 [CBK306736],94.6
16,CN(C)CC(O)c1cc2n(n1)CCCN(CC(=O)NCc1cccs1)C2 (centres unmarked) [CBK306738],91.6
17,c1cnn(CCNc2nc3nonc3nc2N2CCCCC2)c1 [CBK306740],83.8
18,COc1ccc(C(NC(=O)c2cn3ccsc3n2)[C@H]2C[C@H](O)C2)cn1 (some centres unmarked) [CBK306744],101
19,Cc1ccc(Cl)cc1C(=O)N[C@H]1C[C@@H](c2nnc(CO)n2C2CC2)C1 [CBK306746],92.8
20,Cn1ncc(N2CCC(CNC(=O)c3ccccc3Cl)C2)cc1=O (centres unmarked) [CBK306747],95.2
21,Cc1cc(C(=O)N2CCC(c3nnc(CN(C)C)n3C)CC2)ccc1F [CBK306748],95.5
22,CCOC(=O)C1CCCN(Cc2nc(-c3ccc(F)cc3F)oc2C)C1 (centres unmarked) [CBK306749],94.3
23,CN1CCN(Cc2ccc(-c3ccc(C(N)=O)cc3)nc2)CC1 [CBK306750],87.3

row,SMILES,"viability at 28.5 h, 10 µM [%]"
1,Cc1c(C(=O)N2CCCCC2CN2CCOCC2)[nH]c2c(F)cccc12 (centres unmarked) [CBK306751],105
2,CCCN1CCC(NC(=O)c2cc(COc3cccc(F)c3)[nH]n2)CC1 [CBK306753],88.5
3,COC1CCN(S(=O)(=O)c2cc(-n3cccn3)ccc2C)C1 (centres unmarked) [CBK306757],92.8
4,COc1cc(C)cc(OC)c1-c1ncnc(C)c1C [CBK306762],85.7
5,O=C(CN1CCCCCC1=O)NCC(CO)Cc1ccsc1 (centres unmarked) [CBK306763],118
6,COc1ccc2c(c1)c(C(=O)N1CCn3nc(CO)cc3C1)c(C)n2C [CBK306764],88.5
7,CN(CCCc1cnn(C)c1)c1nc(N)nc2c1CCCC2 [CBK306766],96.5
8,O=C(O)C1(Oc2ccc3ccccc3c2)CCN(CC2CCOC2)CC1 (centres unmarked) [CBK306767],91.4
9,CN(Cc1ncc[nH]1)C(=O)c1cn(Cc2cccc(C(F)(F)F)c2)nn1 [CBK306768],84.4
10,CCN(CCN1CCOCC1)C(=O)c1[nH]c2c(F)cccc2c1C [CBK306772],90.3
11,COc1cccc(CN2CCCC(NC(=O)c3ccccc3Cl)C2)c1 (centres unmarked) [CBK306774],117
12,CCc1c(C)nc(C)nc1N1CCCn2nc(C(O)C3CC3)cc2C1 (centres unmarked) [CBK306778],100
13,Cn1c(N2CC[C@H](O)C2)nc2cc(C(=O)NC3CCCC3)ccc21 [CBK306779],97.6
14,CCCc1nnc2sc(C3CCCN(C(C)C)C3)nn12 (centres unmarked) [CBK306781],85.3
15,CSCCC(=O)NC1CCCc2nc(N3CCC(CO)CC3)ncc21 (centres unmarked) [CBK306782],91.3
16,CCc1nc2c(N3CCC(n4nc(C)cc4C)C3)ncnc2o1 (centres unmarked) [CBK306785],111
17,CCCCC(c1cccnc1)N(C)C(=O)c1ccnc(-n2cnnc2)c1 (centres unmarked) [CBK306786],84.2
18,CC1(C#N)CCCN(C(=O)NC2CCN(Cc3cccc(O)c3)CC2)C1 (centres unmarked) [CBK306787],88.2
19,Cc1noc(C)c1CCC(=O)NC(Cc1ccncc1)C1CC(O)C1 (centres unmarked) [CBK306790],91
20,Cc1cnn(CCNc2cc(C(C)C)nc3ccnn23)c1 [CBK306792],91.5
21,CC(C)CN(Cc1cccs1)C(=O)c1cc2n(n1)CCCN(C)C2 [CBK306793],102
22,CCCNC(=O)c1ccc(C)c(NC(=O)NC2CCOC2)c1 (centres unmarked) [CBK306794],95.8
23,CCCc1nc(NC(c2cccc(C)n2)C2CC2)c2cnn(C)c2n1 (centres unmarked) [CBK306795],88
